Measured values published in paper PMC11123773, “Identification of New Substrates and Inhibitors of Human CYP2A7” (Molecules, 2024).
Residue numbers refer to the chain shown, from its start.

Tests used:
Assay in all cases: Diclofenac biotransformation with enzyme bags, LC-MS analysis of hydroxydiclofenac
Assay type in all cases: biochemical
CYP2A7-WT = molecular target: T1, CYP2A7-WT (Homo sapiens, UniProt P20853, D169E/H274R/R311C/V479G); design: expressed in transfected cells; host or cells: Schizosaccharomyces pombe strain AA01 (pREP1-CYP2A7-WT in CAD62), permeabilized cells (enzyme bags); conditions: by CYP2A7-WT; diclofenac 100 µM
T1 sequence (P20853 1-494 D169E/H274R/R311C/V479G): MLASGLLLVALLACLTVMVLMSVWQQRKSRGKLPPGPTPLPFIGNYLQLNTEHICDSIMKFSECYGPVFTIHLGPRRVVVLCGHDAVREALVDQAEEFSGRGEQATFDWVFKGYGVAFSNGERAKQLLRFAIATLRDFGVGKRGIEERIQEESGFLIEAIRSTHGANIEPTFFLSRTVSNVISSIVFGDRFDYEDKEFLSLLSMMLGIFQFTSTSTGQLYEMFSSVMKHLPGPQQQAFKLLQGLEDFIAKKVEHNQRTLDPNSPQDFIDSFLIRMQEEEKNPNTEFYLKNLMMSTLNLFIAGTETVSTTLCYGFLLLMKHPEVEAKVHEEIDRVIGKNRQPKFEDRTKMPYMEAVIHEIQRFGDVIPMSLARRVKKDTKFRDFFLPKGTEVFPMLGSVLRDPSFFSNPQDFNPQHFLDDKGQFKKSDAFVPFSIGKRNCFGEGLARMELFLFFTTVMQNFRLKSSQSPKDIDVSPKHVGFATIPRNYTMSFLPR
Protocol: (§1) This was performed as described previously with slight modifications. Briefly, fission yeast cells were cultured on EMM plates with 5 µM thiamine for 3 days at 30 °C. A single yeast colony was then transferred to a 10 mL liquid culture of EMM without thiamine and cultured at 30 °C and 230 rpm for 36 h. As the recombinant expression of the human enzymes is controlled by the strong endogenous nmt1 promoter, all subsequent cultures were cultured in the absence of thiamine to keep the promoter in an active state. For each activity assay, 5 × 10^7 cells (stationary growth phase) were transferred to 1.5 mL Eppendorf tubes (Axygen; Silicon Valley, USA), pelleted, and incubated in 1 mL of 0.3% Triton-X100 in Tris-KCl buffer (200 mM KCl, 100 mM Tris-HCl pH 7.8) at room temperature for 60 min at 150 rpm for permeabilization. After three washes with 1 mL NH4HCO3 buffer (50 mM, pH 7.8), cells were resuspended in phosphate buffer (pH 7.4) and then the substrate and the NADPH regeneration system were added to a total volume of 50 µL. The samples were incubated at 37 °C and 1000 rpm for 3 h. For LC-MS analysis, the reaction mixture was extracted with an equal amount of ethyl acetate by centrifugation, and the supernatants were stored at −20 °C until use.
(§2) Analytical procedures were performed on an Agilent HPLC/microTOF-Q II instrument equipped with a Kromasil 100-5-C18 (dimensions 4.6 × 250 mm). […]

CYP2A6*1 = molecular target: T2, CYP2A6*1 (Homo sapiens, UniProt P11509); design: expressed in transfected cells; host or cells: Schizosaccharomyces pombe strain RAJ122 (pREP1-CYP2A6*1 in CAD62), permeabilized cells (enzyme bags); conditions: by CYP2A6*1; diclofenac 100 µM
T2 sequence (P11509 1-494): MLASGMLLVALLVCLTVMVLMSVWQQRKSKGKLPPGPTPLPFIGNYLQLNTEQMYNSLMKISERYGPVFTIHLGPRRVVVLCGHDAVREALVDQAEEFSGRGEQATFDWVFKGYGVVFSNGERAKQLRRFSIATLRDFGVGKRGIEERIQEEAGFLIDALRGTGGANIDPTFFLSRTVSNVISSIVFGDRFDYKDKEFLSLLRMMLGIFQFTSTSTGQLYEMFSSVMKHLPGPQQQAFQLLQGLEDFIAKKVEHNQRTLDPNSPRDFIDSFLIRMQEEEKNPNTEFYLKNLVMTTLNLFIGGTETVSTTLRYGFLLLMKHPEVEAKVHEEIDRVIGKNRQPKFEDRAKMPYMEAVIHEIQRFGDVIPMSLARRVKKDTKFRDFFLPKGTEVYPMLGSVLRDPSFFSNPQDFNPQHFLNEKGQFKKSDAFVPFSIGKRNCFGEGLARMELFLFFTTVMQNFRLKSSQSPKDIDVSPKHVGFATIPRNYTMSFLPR
Protocol: as §1, §2

CYP2A7*1 = molecular target: T3, CYP2A7*1 (Homo sapiens, UniProt P20853); design: expressed in transfected cells; host or cells: Schizosaccharomyces pombe strain RAJ127 (pREP1-CYP2A7*1 in CAD62), permeabilized cells (enzyme bags); conditions: by CYP2A7*1; diclofenac 100 µM
T3 sequence (P20853 1-494): T1 sequence (P20853 1-494 D169E/H274R/R311C/V479G) with E169D, R274H, C311R, G479V
Protocol: as §1, §2

O=C(O)Cc1ccccc1Nc1c(Cl)cccc1Cl [diclofenac]
Metabolization of diclofenac (hydroxydiclofenac formation) (CYP2A7-WT): produced a diclofenac metabolite that had the mass of hydroxydiclofenac
Metabolization of diclofenac (hydroxydiclofenac formation) (CYP2A6*1): produced a diclofenac metabolite that had the mass of hydroxydiclofenac
Metabolization of diclofenac (hydroxydiclofenac formation) (CYP2A7*1): produced a diclofenac metabolite that had the mass of hydroxydiclofenac
